Like-named read-outs stand apart in the source and are kept apart here. No end group written: not given here.

For series [1], the system named is BJ-5ta cells. Description: Cell viability assay (MTT). It counts as cell-based. Here is the method: (§1) Fibroblast cells (BJ-5ta, CRL-4001) were cultured in complete medium, a 4:1 mixture of Dulbecco's medium and Medium 199 with supplements as 4 parts of Dulbecco's Modified Eagle's Medium containing 4 mM L-glutamine, 4.5 g/L glucose and 1.5 g/L sodium bicarbonate, 1 part of Medium 199 supplemented with 0.01 mg/mL hygromycin B 10% fetal bovine serum with incubation at 37 °C under 5% CO2 atmosphere.
A total of 10^4 fibroblasts/well were seeded in 96-well plates and treated with pea, rice and collagen peptides (from 1 to 20 mg/mL) and ascorbic acid (from 0.1 to 10 mg/mL), CR1, CR2, CP1, CP2, CP3, CP4 and CP5 peptides (from 25 to 500 µM) or H2O2 (from 0.1 to 1 mg/mL) or vehicle (H2O) in complete growth media for 48 h at 37 °C under 5% CO2 atmosphere. Subsequently, the treatment solvent was aspirated and 100 µL/well of 3-(4,5-dimethylthiazol-2-yl)-2,5-diphenyltetrazolium bromide (MTT) filtered solution added. After 2 h of incubation at 37 °C under 5% CO2 atmosphere, 0.5 mg/mL solution was aspirated and 100 µL/well of the lysis buffer (8 mM HCl + 0.5% NP-40 in DMSO) added. After 10 min of slow shaking, the absorbance at 575 nm was read on the Synergy H1 fluorescence plate reader (Biotek, Bad Friedrichshall, Germany).
In this example, the effect of pea and rice peptides was tested on BJ-5ta cells in a modified MTT assay as described above. […]

The nature of series [2]: ABTS assay. It counts as biochemical. Here is the method: The ABTS assay is based on the reduction of the 2,2-azino-bis-(3-ethylbenzothiazoline-6-sulfonic acid (ABTS) radical induced by antioxidants. The ABTS radical cation (ABTS+● was prepared by mixing a 7 mM ABTS solution (Sigma-Aldrich, Milan, Italy) with 2.45 mM potassium persulfate (1:1) and stored for 16 h at room temperature and in dark. To prepare the ABTS reagent, the ABTS+● was diluted in 5 mM phosphate buffer (pH 7.4) to obtain a stable absorbance of 0.700 (±0.02) at 730 nm. For the assay, 10 µL of samples were added to 140 µL of diluted the ABTS+● at the following final concentrations: 0.01 and 0.1 mg/mL for pea and rice peptides; 0.1, 1, 10 and 20 mg/mL for collagen peptides; 0.0001, 0.001 and 0.01 mg/mL for ascorbic acid; 1, 10, 25, 50, 100 µM for CR1, CP1 and CP2 peptides. The microplate was incubated for 30 min at 30 °C and the absorbance was read at 730 nm using a Synergy™ HT-multimode microplate reader (Biotek Instruments, Winooski, VT, USA). The TEAC values were calculated using a Trolox (Sigma-Aldrich, Milan, Italy) calibration curve (60-320 µM).
In this example, the antioxidant activity of pea and rice peptides was tested in vitro in an ABTS Assay as described above.
In this example, the antioxidant activity of peptides CP1, CP2 and CR1 (see Table 1 above) was tested in vitro in an ABTS Assay as described above.

Series [3] in a line: FRAP assay. The class given is biochemical. As to conditions: pea and rice peptides 0.01-1 mg/mL; collagen 1-20 mg/mL; ascorbic acid 0.00001-0.1 mg/mL.
For series [4], the system named is Caco-2 cells. Description: Trans-epithelial transport of digested and non-digested hydrolysates, LC-MS/MS of AP and BL samples. The settings on record: without H2O2; for common sequences in BL rice digested vs. BL rice not digested samples: rice hydrolysates; for common sequences in AP pea digested vs. BL pea digested samples: digested pea hydrolysate; for detection in the AP pea and BL pea samples: non-digested pea hydrolysate.
Method: (§5) Caco-2 cells, obtained from INSERM (Paris, France) were routinely sub-cultured at 50% confluence and maintained at 37°C in a 5% CO2 atmosphere in DMEM containing 25 mM of glucose, 3.7 g/L of NaHCOs, 4 mM of stable L-glutamine, 1% non-essential amino acids, 100 U/L of penicillin and 100 µg/L of streptomycin (complete medium), supplemented with 10% heat-inactivated FBS. To facilitate the establishment of a confluent cell monolayer, cells were seeded on a Transwell at a density of 3.5 × 10^5 cells/cm^2 in complete medium supplemented with 10% FBS in both the AP and BL compartments for a period of 2 days. Cells were seeded, and on day three, they were moved to an FBS-free medium in the AP compartment. They were then allowed to differentiate for 18-21 days, with three weekly medium changes in between. Transepithelial electrical resistance (TEER) of differentiated Caco-2 cells was measured at 37 °C using the Millicell voltmeter device (Millipore Co., Billerica, MA, USA) both before and after the transport experiments for monitoring the integrity of the cell monolayers.
(§6) TEER measurement was used to verify the integrity and differentiation of the cell monolayer prior to transport experiments. Pea and rice peptides trans-epithelial transit was assessed in differentiated Caco-2 cells in transport buffer solution (137 mM NaCl, 5.36 mM KCl, 1.26 mM CaCl2, and 1.1 mM MgCl2, 5.5 mM glucose). The apical (AP) solutions were kept at pH 6.0 (buffered with 10 mM morpholinoethane sulfonic acid) and the basolateral (BL) solutions were kept at pH 7.4 (buffered with 10 mM N-2-hydroxyethylpiperazine-N-4-butanesulfonic acid) in order to replicate the pH conditions found in vivo in the small intestinal mucosa. Before the transport assay, cells were equilibrated in HBSS for 15 minutes at 37°C. In the AP compartment with the AP transport solution (500 µL) and the BL compartment with the BL transport solution (700 µL), rice and pea (5 mg/mL) were added. All BL and AP solutions were collected after two hours of absorption experiment carried out at 37°C, and they were kept at - 80°C before analysis. Transport experiments were performed in duplicate.
(§7) The enzymatic hydrolysis of pea and rice peptides was performed using pepsin and trypsin to simulate gastrointestinal digestion. For pepsin and trypsin digestion, the pH of the solution was adjusted to pH 2 and 8, respectively, by adding 1 M HCl or 1 M NaOH. The pepsin and trypsin solutions were added to the solution at a 1:100 (w/w) E/S ratio. After 60 min of peptic digestion at 37°C, pepsin was inactivated by adjusting the pH to 8; whereas the tryptic digestion (15 minutes) was blocked by heating the solution at 95 °C for 5 min (Lo et al., 2005). Collagen, pea and rice hydrolysates were passed through ultrafiltration membranes for the complete enzymes removal, using a Millipore UF system (Millipore, Bedford, MA, USA). Recovered peptides were lyophilized and stored at -80 °C for high-resolution LC-MS/MS analysis.

In series [5] the test system is Caco-2 cells.
Method: as §5, §6, §7
Series [6] can be described thus: FRAP assay. It counts as biochemical. The settings on record: synthesized peptides up to 200 µM. Here is the method: The FRAP assay evaluates the ability of a sample to reduce ferric ion (Fe3^+) into ferrous ion (Fe2^+). Thus, 10 µL of samples were mixed with 140 µL of FRAP reagent until reaching the following concentrations: 0.01, 0.1 and 1 mg/mL for pea and rice peptides; 1, 10 and 20 mg/mL for collagen peptides; 0.00001, 0.0001, 0.001 and 0.1 mg/mL for ascorbic acid; 10, 100 and 200 µM for CR1 and CP5 peptides; 25, 50, 100 and 200 µM for CP1 and CP2 peptides. The FRAP reagent was prepared by mixing 1.3 mL of a 10 mM TPTZ (Sigma-Aldrich, Milan, Italy) solution in 40 mM HCl, 1.3 mL of 20 mM FeCl3 × 6H2O and 13 mL of 0.3 M acetate buffer (pH 3.6). The microplate was incubated for 30 min at 37 °C and the absorbance was read at 595 nm. The results were calculated by a Trolox (Sigma-Aldrich, Milan, Italy) standard curve obtained using different concentrations (3-400 µM)). Absorbances were recorded on a Synergy™ HT-multimode microplate reader.
In this example, the antioxidant activity of pea and rice peptides was tested in vitro in a FRAP Assay as described above.
In this example, the antioxidant activity of peptides CP1, CP2, CP5 and CR1 was tested in vitro in a FRAP Assay as described above.

The test system of series [7] is collagen. Description: Western blot analysis, collagen protein level. It counts as cell-based. Here is the method:
as §1
A total of 2.2 × 10^5 BJ-5ta cells/well were seeded on 24-well plates and incubated at 37 °C under a 5% CO2 atmosphere. The following day, cells were treated with pea, rice and collagen peptides (5 mg/mL), CR1, CR2, CP1, CP4 and CP5 (250 and 500 µM), CP2 (100, 250 and 500 µM) or vehicle (H2O) in a complete growth medium for 24 h. The day after, cells were stimulated with H2O2 (200 µM) or vehicle (H2O) for 1 h. […] Total proteins were quantified by Bradford method and 50 µg of total proteins loaded on a precast 7.5% Sodium Dodecyl Sulfate - Polyacrylamide (SDS-PAGE) gel at 130 V for 45 min. […] Target proteins, on milk or BSA blocked membrane, were detected by primary antibodies as follows: anti-collagen, anti-elastin, anti-phospho(Thr172)-AMPK, anti-phospho(Ser473)-Akt, anti-NF-κB and anti-β-actin. Secondary antibodies conjugated with HRP and a chemiluminescent reagent were used to visualize target proteins and their signal was quantified using the Image Lab Software (Biorad). […]

For series [8], the system named is elastin. Description: Western blot analysis, elastin protein level. It counts as cell-based. Here is the method: as §1
A total of 2.2 × 10^5 BJ-5ta cells/well were seeded on 24-well plates and incubated at 37 °C under a 5% CO2 atmosphere. The following day, cells were treated with pea, rice and collagen peptides (5 mg/mL), CR1, CR2, CP1, CP4 and CP5 (250 and 500 µM), CP2 (100, 250 and 500 µM) or vehicle (H2O) in a complete growth medium for 24 h. The day after, cells were stimulated with H2O2 (200 µM) or vehicle (H2O) for 1 h. After each treatment, cells were scraped in 30 µL ice-cold lysis buffer [RIPA buffer + inhibitor cocktail + 1:100 PMSF + 1:100 Na-orthovanadate] and transferred in an ice-cold microcentrifuge tube. After centrifugation at 13.300g for 15 min at 4 °C, the supernatant was recovered and transferred into a new ice-cold tube. Total proteins were quantified by Bradford method and 50 µg of total proteins loaded on a precast 7.5% Sodium Dodecyl Sulfate - Polyacrylamide (SDS-PAGE) gel at 130 V for 45 min. Subsequently, the gel was pre-equilibrated with 0.04% SDS in H2O for 15 min at RT and transferred to a nitrocellulose membrane (Mini nitrocellulose Transfer Packs,) using a trans-Blot Turbo at 1.3 A, 25 V for 7 min. Target proteins, on milk or BSA blocked membrane, were detected by primary antibodies as follows: anti-collagen, anti-elastin, anti-phospho(Thr172)-AMPK, anti-phospho(Ser473)-Akt, anti-NF-κB and anti-β-actin. Secondary antibodies conjugated with HRP and a chemiluminescent reagent were used to visualize target proteins and their signal was quantified using the Image Lab Software (Biorad). The internal control β-actin was used to normalize loading variations. […]
A general note: A western blot detects proteins with antibodies after separation by electrophoresis.

Series [9] has as its system collagen. Description: ELISA assay, collagen secretion. The settings on record: peptides of Table 1, BJ-5ta cells. The class given is cell-based, human. Here is the method:
(§2) Cytokines, metalloproteases, collagen and elastin quantification was performed using human Authentikine® ELISA kits (Proteintech, Rosemont, USA) and Cusabio ELISA kits (Houston, TX, USA) according to the manufacturer's instruction and. Briefly, the supernatants collected from treated and H20-stimulated bj-5ta cells were centrifuged at 13,300 × g for 10 minutes at 4°C, then the pellet and insoluble material were discarded. For the experiments, 100 µL of samples were added to each well and the microplate was incubated for 2 hours at 37°C. After the incubation, the solutions were discarded and each well washed 4 times with 300 µL of Wash Buffer solution, then 100 µL of Detection antibody solution were added to each well and the microplate was incubated for 1 hours at 37°C. […] After 4 washes, the TMB substrate (100 µL/well) was added and reactions were stopped after 20 min with 50 µL of Stop Solution and the absorbance at 450 and 540 nm was measured using the Synergy H1 plate reader (BioTek Instruments).
(§3) In this example, the secretion of collagen and elastin with pea and rice peptides was tested in vitro by an ELISA assay as described above. Thereby, ECM stability is evaluated.
(§4) In this example, the secretion of collagen and elastin with the peptides of Table 1 was tested in vitro by an ELISA assay as described above. Thereby, ECM stability is evaluated.

For series [10], the system named is elastin. Description: ELISA assay, elastin secretion. The class given is cell-based, human. Here is the method:
as §2, §3, §4
In general terms: In an ELISA, binding on a coated surface is turned into a signal by an enzyme label.

The mark [11] stands for this setting: 250 µM, screening among CR1, CR2, CP1, CP2, CP4, CP5.
The mark [12] stands for this setting: 500 µM, among CR1, CR2, CP1, CP2, CP4, CP5.

`OO` [H2O2]: in series [1] (skin fibroblasts exposed to increasing concentration of H2O2), the “concentration up to which no cytotoxic effects” value was at most 400 µM.
Turning to `O=C1O[C@H]([C@@H](O)CO)C(O)=C1O` [ascorbic acid], the “ABTS radical scavenging activity, dependence on concentration” value in [2] (pea and rice peptides 0.01 and 0.1 mg/mL, collagen 0.1-20 mg/mL, ascorbic acid 0.0001-0.01 mg/mL) is “decreasing radical scavenging activity with increasing concentration”. The “ferric reducing antioxidant power, dependence on concentration” value in [3] was “increase”. Besides, in series [1] (BJ-5ta cells, 48 h), the “concentrations with effects on cellular viability” value was “more than 1 mg/mL”.
Consider AEDVGEEVER [CR1, AEDVGEEVER], for which the “common sequences in BL rice digested vs. BL rice not digested samples” value in series [4] is given as “found”.
Take AGFAGDDAPR [CR2, AGFAGDDAPR]: the “common sequences in BL rice digested vs. BL rice not digested samples” value in series [5] is “found”.
For “DWLLGATGTGK (DVVLLGATGTGK; listed as Oryza sativa) [CR3]”, the “common sequences in BL rice digested vs. BL rice not digested samples” value in series [4] is reported as “found”.
Regarding DWPEWVR [CP2], the “ABTS radical scavenging activity compared with CR1” value in [2] (synthesized peptides 1-100 µM) is recorded as “lower than with CR1”. Further, in series [2] (synthesized peptides 1-100 µM), the “ABTS radical scavenging activity, dependence on concentration” value is given as “decreases with increasing concentration”. In series [2] (synthesized peptides 1-100 µM, compared to control C), the “ABTS radical scavenging activity” value is reported as “lower than the one of the control C”. Besides, in series [6], the “ferric reducing antioxidant power compared with CR1” value is given as “higher than with CR1”. Moreover, in series [6], the “ferric reducing antioxidant power, dependence on concentration” value is on record as “increases with increasing concentration”. In addition, in [6] (compared to control C), the “ferric reducing antioxidant power” value is listed as “higher than the control C”. In addition, the “modulation of collagen protein level” value in series [7] (setting [11]) and in [7] (setting [12]) was “highest modulation of collagen protein level” each time. Moreover, the “modulation of elastin protein level” value in [8] (setting [11]) and in series [8] (setting [12]) was “highest modulation of elastin protein level” each time. In addition, the “modulation of elastin protein level compared to CP4 and CP5” value in series [8] (500 µM) was “higher modulation of elastin protein level compared to CP4 and CP5”. In series [9], the “stimulation of collagen secretion” value is reported as “strongest stimulation of collagen secretion”. The “stimulation of elastin secretion” value in series [10] (CP2 at 100 µM versus other peptides at 500 µM) is listed as “higher than for the other tested peptides at a concentration of 500 µM”; in [10] (peptides of Table 1, BJ-5ta cells) it was “strongest stimulation of elastin secretion”. In series [4], the “common sequences in AP pea digested vs. BL pea digested samples” value is “found”. Moreover, the “detection in the AP pea and BL pea samples” value in series [4] is recorded as “detected”.
As for ENIADAAR [CP3, ENIADAAR], in series [4], the “common sequences in AP pea digested vs. BL pea digested samples” value is “found”; the “detection in the AP pea and BL pea samples” value is reported as “detected”.
In the same order, the values of “GSRQEEEEDEDEERQPR [CP4, GSRQEEEEDEDEERQPR]” are “found” and “detected”.
In the same order, the values of “SEQ-ID:2: peptide identified by MS in pea hydrolysate; sequence not printed in the text (DTSETWAIR; listed as Pisum sativum)” are “found” and “detected”.
For “SEQ-ID:12: peptide identified by MS in pea hydrolysate; sequence not printed in the text (SSNNQLDQMPR; listed as Pisum sativum)”, in that order: “found” and “detected”.
With “SEQ-ID:15: peptide identified by MS in pea hydrolysate; sequence not printed in the text (LDEAAEPAALER; listed as Pisum sativum)”, the “common sequences in AP pea digested vs. BL pea digested samples” value in [4] is on record as “found”.
Same read-out and setting: in the case of “SEQ-ID:35: peptide identified by MS in pea hydrolysate; sequence not printed in the text (SVFNGEVR; listed as Pisum sativum)” it was “found”.
